Data on one molecule can be found in publication PMC9171587, “Novel α-Amylase Inhibitor Hemi-Pyocyanin Produced by Microbial Conversion of Chitinous Discards” (Marine Drugs, 2022).

This assay has as its target T1, Porcine pancreatic α-amylase (Sus scrofa, UniProt P00690).
T1 construct: gene AMY2
T1 sequence (P00690 16-511): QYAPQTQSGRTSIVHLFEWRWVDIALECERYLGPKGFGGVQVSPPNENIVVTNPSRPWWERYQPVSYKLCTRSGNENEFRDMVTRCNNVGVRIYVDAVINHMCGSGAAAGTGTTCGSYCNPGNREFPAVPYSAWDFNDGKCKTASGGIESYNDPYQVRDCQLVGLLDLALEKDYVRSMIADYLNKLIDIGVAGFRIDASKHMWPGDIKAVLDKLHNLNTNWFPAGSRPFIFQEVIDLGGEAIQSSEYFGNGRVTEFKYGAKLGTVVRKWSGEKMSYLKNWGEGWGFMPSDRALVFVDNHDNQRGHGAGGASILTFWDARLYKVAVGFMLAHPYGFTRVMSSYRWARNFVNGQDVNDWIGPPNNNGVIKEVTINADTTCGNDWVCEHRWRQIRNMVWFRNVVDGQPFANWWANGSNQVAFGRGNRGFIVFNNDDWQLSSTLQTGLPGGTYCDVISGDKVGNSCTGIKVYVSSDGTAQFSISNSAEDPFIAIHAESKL
Description: starch hydrolysis assay (Bernfeld, reducing sugar at OD540) with commercial enzyme type VI-B. It is filed as biochemical.

Regarding `Oc1cccc2nc3ccccc3nc12` [SF-1, hemi-pyocyanin], the IC50 – broadly, the concentration that inhibits the measured activity by half – is 15.8 µM.
